# Test results from the OligoGym collection.
# Values joined by “and” are separate entries in the source; they are usually repeats but may differ in a detail not shown here. Identical values can stand only once. After the bases stand the sugars from the 5' end (letter, count) and the backbone: PS all phosphorothioate, else s phosphorothioate and o phosphodiester by linkage. Methylation of C is not given here. e = 2'-O-(2-methoxyethyl) (MOE); k = constrained ethyl (cEt); d = 2'-deoxy (DNA)
# Assays:
# IRF5 = settings: ASO, KARPAS-229, 4 µM
# DGAT2 = settings: ASO
Sequence,"target mRNA inhibition (DGAT2; HepG2, 0.12 µM)","target mRNA inhibition (DGAT2; HepG2, 2.5 µM)","target mRNA inhibition (DGAT2; HepG2, 10 µM)",other results
"CAATGCAACATCCATC (sugars k3 d10 k3, PS)",,,,target mRNA inhibition (IRF5): 0%
"ATGGTGTTATCTCCGT (sugars kkddddddddkekekk, PS)",,,,target mRNA inhibition (IRF5): 0%
"CACTGACACAGGCGGA (sugars kkkddddddddkdkdk, PS)",,,,target mRNA inhibition (IRF5): 0%
"AGGGCACAGCGCAGGT (sugars k3 d10 k3, PS)",,,,target mRNA inhibition (IRF5): 2%
"CCGCGCAGGACCCCGGAGTA (sugars e5 d10 e5, PS)",75%,,,
"AACAGGGTACAACTCTCTTG (sugars e5 d10 e5, PS)",,61%,92%,
"AGGCAGATGGACAGGTGATT (sugars e5 d10 e5, PS)",,54%,92%,
"TGTCCTTATCAAAATCCCTC (sugars e5 d10 e5, PS)",38%,,,
"TTCCTTTGAAATCCAATGCA (sugars e5 d10 e5, PS)",,63%,86%,
"GCCACCCCCATCCTCATCCT (sugars e5 d10 e5, PS)",0%,,,
"TCATGAGAAGCTTAGAAGGC (sugars e5 d10 e5, PS)",58%,,,
"AAATCCATGTCAGAGAGGCT (sugars e5 d10 e5, PS)",,64%,92%,
"CCAGGTAAGGCCGTATGCCT (sugars e5 d10 e5, PS)",78% and 76%,18%,20%,"target mRNA inhibition (DGAT2; HepG2, 20 µM): 43%"
"CCAGGTAAGGCCGTATGCCT (sugars e2 d13 e5, PS)",64%,,,
"GTTTACTGTGGCACTAAGCT (sugars e5 d10 e5, PS)",,57%,84%,
"TCGGAGGAGAAGAGGCCTCG (sugars e5 d10 e5, PS)",60%,,,
"GGCAGAGAAACTGGTCCTGC (sugars e5 d10 e5, PS)",,55%,81%,
"ATAGGCCTGGATGCCCAAGT (sugars e5 d10 e5, PS)",,49%,88%,
"TCTCATCAAGAGATAACAGA (sugars e5 d10 e5, PS)",6%,,,
"CCAGGGCCTCCATGTACATG (sugars e3 d14 e3, PS)",86%,,59%,"target mRNA inhibition (DGAT2; HepG2, 20 µM): 41%"
"TGGCACTAAGCTAGGCACAC (sugars e5 d10 e5, PS)",62%,,,
"CTTCACCAGGGCCTCCATGT (sugars e5 d10 e5, PS)",46%,10%,66%,"target mRNA inhibition (DGAT2; HepG2, 20 µM): 87%"
"CCAAAGATATAGTTCCTGGT (sugars e5 d10 e5, PS)",66%,,,

Sequence,"target mRNA inhibition (DGAT2; HepG2, 0.12 µM)","target mRNA inhibition (DGAT2; HepG2, 2.5 µM)","target mRNA inhibition (DGAT2; HepG2, 10 µM)",other results
"GGCCTTGGCTGCAAGCTCTG (sugars e5 d10 e5, PS)",,52%,67%,
"TTGTGTGTCTTCACCAGCTG (sugars e5 d10 e5, PS)",63% and 73%,,,
"ATCTCAGTCACTGACTCACA (sugars e5 d10 e5, PS)",,46%,95%,
"AACTCTGCCATTTAATGAGC (sugars e5 d10 e5, PS)",,17%,53%,
"CAGGTTGTGTGTCTTCACCA (sugars e3 d14 e3, PS)",68%,,,
"GCAGCCTACAAGAGCCTGTT (sugars e5 d10 e5, PS)",,59%,89%,
"CATGGAGCTCAGAGACTCAG (sugars e3 d14 e3, PS)",62%,,,
"GTGACCTTGGGATAGTCCCT (sugars e5 d10 e5, PS)",,76% and 69%,92% and 89%,
"CTTTGAGCATCCCCAATCCC (sugars e5 d10 e5, PS)",,14%,75%,
"TGACCTGTAGCTGCTTTTCC (sugars e5 d10 e5, PS)",35%,,,
"AGTTTGCTCAGTTCTTCCAA (sugars e5 d10 e5, PS)",,61%,91%,
"AGCTGGATGGGAAAGTAGTC (sugars e5 d10 e5, PS)",31%,,,
"CCCTTGCGGTTCCGCAGGGT (sugars e5 d10 e5, PS)",36%,,,
"TTAGGCATGCTTCCTCCCAC (sugars e5 d10 e5, PS)",,78%,68%,
"GAGGAGTTCTCGAATATCCC (sugars e5 d10 e5, PS)",,43%,80%,
"GACCCACTGGAGCACTGAGA (sugars e2 d13 e5, PS)",70%,,,
"TGCCAATGCCTAGGTCACAG (sugars e5 d10 e5, PS)",,78% and 87%,87% and 91%,
"AGGTTAGCTGAGCCACCCAG (sugars e5 d10 e5, PS)",59%,,,
"CCCCTCGCGCGACAGCGCAG (sugars e5 d10 e5, PS)",25%,,,
"AGGACCCACTGGAGCACTGA (sugars e3 d14 e3, PS)",82%,16%,38%,"target mRNA inhibition (DGAT2; HepG2, 20 µM): 53%"
"CTTGCCAGGCATGGAGCTCA (sugars e5 d10 e5, PS)",51%,,,
"TAAATAACCCACAGACACCC (sugars e5 d10 e5, PS)",6%,,,
"TCACCAGATTGTTGTGGGAA (sugars e5 d10 e5, PS)",,69%,78%,

Sequence,"target mRNA inhibition (DGAT2; HepG2, 0.12 µM)","target mRNA inhibition (DGAT2; HepG2, 2.5 µM)","target mRNA inhibition (DGAT2; HepG2, 10 µM)",other results
"GTTTCGGACCCACTGTGACC (sugars e5 d10 e5, PS)",65%,,,
"TCAGCCACCCAAGAAAAACC (sugars e5 d10 e5, PS)",0%,,,
"CCCTGGGACTCAGTGTCCTC (sugars e5 d10 e5, PS)",,90%,83%,
"AGGATGCTTAACTTCTGCTG (sugars e5 d10 e5, PS)",,82%,76%,
"GGTGGTTGCAATGTTGCCAT (sugars e5 d10 e5, PS)",,90% and 76%,93% and 90%,
"TGGAGTAGGGCACCAGCCCC (sugars e5 d10 e5, PS)",28%,,,
"CGATTCACTGAGGACCTCAG (sugars e5 d10 e5, PS)",,79%,61%,
"AGGCTCTGGTTCCATGCTCT (sugars e5 d10 e5, PS)",,61%,79%,
"CTGGAGGCCAGTCCAGGCTC (sugars e5 d10 e5, PS)",23%,,,
"GGGTGTGTTCCAGTCAAACA (sugars e5 d10 e5, PS)",6%,,,
"GCATTTTAACAAGATCCCCA (sugars e5 d10 e5, PS)",34%,,,
"GCTATAGAATCAGACAGACC (sugars e5 d10 e5, PS)",46%,,,
"GCATTGCCACTCCCATTCTT (sugars e2 d13 e5, PS)",61%,,,
"ATTGCCACTCCCATTCTTTG (sugars e5 d10 e5, PS)",35%,,,
"GCTGAGAGAGACAATGAGTA (sugars e5 d10 e5, PS)",54%,,,
"AGGCTGAGTTCTGCTCCTGG (sugars e5 d10 e5, PS)",,72%,78%,
"CAGGACCCCGGAGTAGGCGG (sugars e5 d10 e5, PS)",75%,,,
"AGGCCTCGGGAAGCACCTGG (sugars e5 d10 e5, PS)",,39%,84%,
"TCCTGGTGGTCAGCAGGTTG (sugars e5 d10 e5, PS)",58%,,,
"CAGTTTCGGACCCACTGTGA (sugars e3 d14 e3, PS)",58%,,,
"GGTCAGCAGGTTGTGTGTCT (sugars e3 d14 e3, PS)",57%,,,
"TGGTGGTTGCAATGTTGCCA (sugars e5 d10 e5, PS)",,88% and 80%,92% and 91%,
"TTGTGTGTCTTCACCAGCTG (sugars e3 d14 e3, PS)",60%,,,

Sequence,"target mRNA inhibition (DGAT2; HepG2, 0.12 µM)","target mRNA inhibition (DGAT2; HepG2, 2.5 µM)","target mRNA inhibition (DGAT2; HepG2, 10 µM)",other results
"AAGAGCTTCACCAGGGCCTC (sugars e5 d10 e5, PS)",44%,10% and 22%,83%,"target mRNA inhibition (DGAT2; HepG2, 20 µM): 92%"
"AGGCCCCTTCTGAAGAGGGA (sugars e5 d10 e5, PS)",43%,,,
"AGTTTCGGACCCACTGTGAC (sugars e2 d13 e5, PS)",64%,,,
"CGACAGCGCAGGTCCTCCGT (sugars e5 d10 e5, PS)",48%,,,
"AGTCCAAACACTCAGGTAGG (sugars e5 d10 e5, PS)",,66%,79%,
"CACCAGGGCCTCCATGTACA (sugars e3 d14 e3, PS)",41%,,,
"ACACACAATATCCATGGACT (sugars e5 d10 e5, PS)",,68%,95%,
"GGGCGAAACCAATGTATTTC (sugars e5 d10 e5, PS)",24%,,,
"GCCCAGTTTCGGACCCACTG (sugars e3 d14 e3, PS)",81%,,,
"TTTCGGACCCACTGTGACCT (sugars e5 d10 e5, PS)",65%,,,
"GCCCAATATCTGATATCAAA (sugars e5 d10 e5, PS)",,80% and 69%,89% and 84%,
"CTGGCTCAGTTCACCTCCAG (sugars e5 d10 e5, PS)",90%,,,
"GAGCAGGTTCATCTGCCTTG (sugars e5 d10 e5, PS)",,81% and 61%,92% and 83%,
"CAGGTCCTCCGTGAGAGCGC (sugars e5 d10 e5, PS)",29%,,,
"CCAGTTTCGGACCCACTGTG (sugars e2 d13 e5, PS)",80%,12%,25% and 50%,"target mRNA inhibition (DGAT2; HepG2, 20 µM): 50%"
"ACCTCGATGTTACATTAAGG (sugars e5 d10 e5, PS)",,68%,90%,
"GGTAAGGCCGTATGCCTGGG (sugars e3 d14 e3, PS)",51%,,,
"AGCGCAGAGCCCATCAGCCT (sugars e5 d10 e5, PS)",48%,,,
"GCATGGAGCTCAGAGACTCA (sugars e2 d13 e5, PS)",77%,,,
"AAGTAAGCCTCGGTGTCCTC (sugars e5 d10 e5, PS)",,84%,69%,
